Patent publication US20040116464A1, “Aryl-ethanolamine derivatives as antiviral agents” (priority 2002, published 2004)
Where two headings read alike, the source gives them in different places.

Assays:
[1] = biological target: T1, HCMV polymerase (Human cytomegalovirus, UniProt P08546); test: HCMV polymerase scintillation proximity assay; assay type: biochemical
T1 construct: made in house; host or cells: recombinant baculovirus-infected SF-9 cells
Protocol: The HCMV polymerase assay is performed using a scintillation proximity assay (SPA) as described in several references, such as N. D. Cook, et al., Pharmaceutical Manufacturing International, pages 49-53 (1992); K Takeuchi, Laboratory Practice, September issue (1992); U.S. Pat. No. 4,568,649 (1986); which are incorporated by reference herein. Reactions are performed in 96-well plates. The assay is conducted in 100 μl volume with 5.4 mM HEPES (pH 7.5), 11.7 mM KCl, 4.5 mM MgCl2, 0.36 mg/ml BSA, and 90 nM ^3H-dTTP. Assays are run with and without CHAPS, (3-[(3-Cholamidopropyl)-dimethylammonio]-1-propane-sulfonate) at a final concentration of 2 mM. HCMV polymerase is diluted in enzyme dilution buffer containing 50% glycerol, 250 mM NaCl, 10 mM HEPES (pH 7.5), 100 μg/ml BSA, and 0.01% sodium azide. The HCMV polymerase, which is expressed in recombinant baculovirus-infected SF-9 cells and purified according to literature procedures, is added at 10% (or 10 μl) of the final reaction volume, i.e., 100 μl. Compounds are diluted in 50% DMSO and 10 μl are added to each well. Control wells contain an equivalent concentration of DMSO. Unless noted otherwise, reactions are initiated via the addition of 6 nM biotinylated poly(dA)-oligo(dT) template/primer to reaction mixtures containing the enzyme, substrate, and compounds of interest. Plates are incubated in a 25° C. or 37° C. H2O bath and terminated via the addition of 40 μl/reaction of 0.5 M EDTA (pH 8) per well. Reactions are terminated within the time-frame during which substrate incorporation is linear and varied depending upon the enzyme and conditions used, i.e., 30 min. for HCMV polymerase. Ten (10) μl of streptavidin-SPA beads (20 mg/ml in PBS/10% glycerol) are added following termination of the reaction. Plates are incubated 10 min. at 37° C., then equilibrated to room temperature, and counted on a Packard Topcount. Linear regressions are performed and IC50's are calculated using computer software.
A modified version of the above HCMV polymerase assay is performed as described above, but with the following changes: Compounds are diluted in 100% DMSO until final dilution into assay buffer. In the previous assay, compounds are diluted in 50% DMSO. 4.5 mM Dithiothreitol (DTT) is added to the polymerase buffer.
All results are listed as Polymerase IC50 (μM) values. In Table 1, the term “n.d.” refers to activity data not determined.

[2] = biological target: HSV polymerase (Human herpesvirus 1, UniProt P04293); test: HSV polymerase assay (Table 1); assay type: biochemical
Sequence of HSV polymerase (P04293 whole entry): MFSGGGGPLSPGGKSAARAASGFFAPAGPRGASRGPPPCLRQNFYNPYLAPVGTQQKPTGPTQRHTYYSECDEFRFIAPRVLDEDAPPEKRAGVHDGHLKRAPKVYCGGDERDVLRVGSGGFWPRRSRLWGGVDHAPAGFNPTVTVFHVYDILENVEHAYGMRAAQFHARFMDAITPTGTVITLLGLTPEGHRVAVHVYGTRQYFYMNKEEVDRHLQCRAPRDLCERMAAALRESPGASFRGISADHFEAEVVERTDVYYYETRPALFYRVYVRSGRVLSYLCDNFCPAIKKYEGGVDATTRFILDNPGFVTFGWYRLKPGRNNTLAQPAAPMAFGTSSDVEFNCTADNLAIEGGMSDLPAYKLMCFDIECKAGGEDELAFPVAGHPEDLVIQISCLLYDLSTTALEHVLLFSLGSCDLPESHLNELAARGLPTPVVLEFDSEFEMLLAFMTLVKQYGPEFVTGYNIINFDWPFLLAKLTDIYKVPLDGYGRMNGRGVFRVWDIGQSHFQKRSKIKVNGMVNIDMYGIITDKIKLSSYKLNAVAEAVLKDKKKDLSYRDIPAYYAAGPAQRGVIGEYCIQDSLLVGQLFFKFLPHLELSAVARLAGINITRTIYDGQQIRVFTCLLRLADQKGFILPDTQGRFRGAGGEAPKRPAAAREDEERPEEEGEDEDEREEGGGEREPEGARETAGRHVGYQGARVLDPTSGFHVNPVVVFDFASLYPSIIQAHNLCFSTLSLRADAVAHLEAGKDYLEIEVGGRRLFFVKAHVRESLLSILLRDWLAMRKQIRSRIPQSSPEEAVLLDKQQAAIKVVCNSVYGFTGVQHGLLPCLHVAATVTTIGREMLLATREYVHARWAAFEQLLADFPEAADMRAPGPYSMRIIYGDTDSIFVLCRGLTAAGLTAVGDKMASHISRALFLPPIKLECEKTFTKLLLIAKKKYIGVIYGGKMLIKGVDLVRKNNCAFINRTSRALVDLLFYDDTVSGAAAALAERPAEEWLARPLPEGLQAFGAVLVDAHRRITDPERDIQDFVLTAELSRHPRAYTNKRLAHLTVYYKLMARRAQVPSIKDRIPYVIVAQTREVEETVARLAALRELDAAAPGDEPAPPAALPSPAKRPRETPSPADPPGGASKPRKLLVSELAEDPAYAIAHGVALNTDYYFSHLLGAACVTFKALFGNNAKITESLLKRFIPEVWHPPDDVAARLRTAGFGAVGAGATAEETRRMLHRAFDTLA

[3] = biological target: VZV polymerase (Varicella-zoster virus, UniProt P09252); test: VZV polymerase assay (Table 1); assay type: biochemical
Sequence of VZV polymerase (P09252 whole entry): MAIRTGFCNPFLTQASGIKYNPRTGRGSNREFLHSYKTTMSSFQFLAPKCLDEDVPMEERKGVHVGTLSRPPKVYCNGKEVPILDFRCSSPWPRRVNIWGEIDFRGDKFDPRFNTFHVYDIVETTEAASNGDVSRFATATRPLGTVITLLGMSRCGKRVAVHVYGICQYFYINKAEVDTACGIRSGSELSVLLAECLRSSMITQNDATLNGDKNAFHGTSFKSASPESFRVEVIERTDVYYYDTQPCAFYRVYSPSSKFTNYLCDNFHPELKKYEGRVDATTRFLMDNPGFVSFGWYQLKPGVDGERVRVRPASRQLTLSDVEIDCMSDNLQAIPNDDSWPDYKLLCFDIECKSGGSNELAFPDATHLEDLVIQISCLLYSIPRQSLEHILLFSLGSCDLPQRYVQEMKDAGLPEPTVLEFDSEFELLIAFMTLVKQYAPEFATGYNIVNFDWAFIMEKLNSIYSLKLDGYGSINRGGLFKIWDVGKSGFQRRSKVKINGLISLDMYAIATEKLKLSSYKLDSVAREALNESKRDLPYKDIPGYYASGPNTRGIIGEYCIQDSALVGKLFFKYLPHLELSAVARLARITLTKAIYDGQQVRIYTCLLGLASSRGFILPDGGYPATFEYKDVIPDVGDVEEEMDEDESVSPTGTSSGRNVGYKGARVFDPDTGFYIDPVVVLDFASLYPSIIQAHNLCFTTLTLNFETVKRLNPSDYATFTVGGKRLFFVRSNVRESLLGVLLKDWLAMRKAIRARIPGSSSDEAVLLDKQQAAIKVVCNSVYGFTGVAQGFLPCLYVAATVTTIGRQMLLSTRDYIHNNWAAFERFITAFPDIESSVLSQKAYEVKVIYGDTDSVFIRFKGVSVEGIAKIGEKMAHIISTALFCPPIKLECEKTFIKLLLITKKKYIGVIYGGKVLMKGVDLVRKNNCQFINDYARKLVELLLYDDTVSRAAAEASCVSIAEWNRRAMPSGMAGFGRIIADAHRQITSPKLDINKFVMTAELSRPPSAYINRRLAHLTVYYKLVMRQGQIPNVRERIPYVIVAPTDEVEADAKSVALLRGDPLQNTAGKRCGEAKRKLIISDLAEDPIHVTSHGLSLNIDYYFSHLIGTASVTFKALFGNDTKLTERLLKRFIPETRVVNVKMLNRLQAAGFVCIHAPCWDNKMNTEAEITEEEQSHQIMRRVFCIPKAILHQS

T1 sequence (P08546 whole entry): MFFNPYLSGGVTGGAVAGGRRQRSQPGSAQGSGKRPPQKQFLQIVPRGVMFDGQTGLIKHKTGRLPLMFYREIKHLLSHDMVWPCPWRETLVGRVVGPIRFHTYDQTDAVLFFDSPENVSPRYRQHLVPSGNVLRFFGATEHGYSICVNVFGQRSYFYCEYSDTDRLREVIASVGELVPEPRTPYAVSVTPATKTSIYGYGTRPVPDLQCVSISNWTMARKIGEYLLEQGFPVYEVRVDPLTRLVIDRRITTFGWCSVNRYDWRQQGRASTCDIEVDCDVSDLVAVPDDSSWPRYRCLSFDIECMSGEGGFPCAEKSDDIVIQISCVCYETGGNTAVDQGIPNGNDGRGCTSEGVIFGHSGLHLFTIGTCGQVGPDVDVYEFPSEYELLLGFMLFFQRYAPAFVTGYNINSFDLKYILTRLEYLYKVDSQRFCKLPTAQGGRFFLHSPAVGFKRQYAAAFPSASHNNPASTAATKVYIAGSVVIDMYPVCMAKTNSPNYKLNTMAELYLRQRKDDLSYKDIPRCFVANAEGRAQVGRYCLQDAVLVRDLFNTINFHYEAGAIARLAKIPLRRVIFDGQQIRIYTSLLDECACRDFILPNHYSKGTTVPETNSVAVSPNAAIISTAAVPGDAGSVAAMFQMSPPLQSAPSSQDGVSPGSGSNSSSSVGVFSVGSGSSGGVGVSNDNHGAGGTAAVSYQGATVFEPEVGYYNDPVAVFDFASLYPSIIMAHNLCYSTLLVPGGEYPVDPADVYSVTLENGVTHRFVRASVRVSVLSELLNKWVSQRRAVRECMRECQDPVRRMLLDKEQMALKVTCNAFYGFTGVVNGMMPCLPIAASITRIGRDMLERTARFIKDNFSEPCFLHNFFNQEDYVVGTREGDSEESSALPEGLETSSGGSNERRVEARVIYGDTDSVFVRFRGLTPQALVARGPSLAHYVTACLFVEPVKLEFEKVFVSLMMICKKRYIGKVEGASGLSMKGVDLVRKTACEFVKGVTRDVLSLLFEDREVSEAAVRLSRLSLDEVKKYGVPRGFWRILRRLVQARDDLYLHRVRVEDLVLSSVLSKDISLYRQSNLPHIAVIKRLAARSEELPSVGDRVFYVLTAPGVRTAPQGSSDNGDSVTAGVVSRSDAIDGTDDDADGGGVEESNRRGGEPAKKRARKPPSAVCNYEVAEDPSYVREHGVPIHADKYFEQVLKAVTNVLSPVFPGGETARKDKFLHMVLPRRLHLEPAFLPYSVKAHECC

| IC50 ([1]; read-out: Polymerase IC50 HCMV) [nM] | IC50 [2] [nM] | IC50 [3] [nM] | melting point [°C] | SMILES | IC50 [1] [nM] |
| --- | --- | --- | --- | --- | --- |
| 130 | 580 | 200 |  | CN(Cc1cc2c(=O)c(C(=O)NCc3ccc(Cl)cc3)cn(C)c2s1)C[C@@H](O)c1ccc(CO)cc1 (single isomer, unassigned) [Example 13] |  |
| 620 | 1720 |  | 181 to 183 | CN(Cc1cc2c(=O)c(C(=O)NCc3ccc(Cl)cc3)cn(C)c2s1)C[C@@H](O)c1ccc([N+](=O)[O-])cc1 (single isomer, unassigned) [Example 14] |  |
| 50 | 200 | 80 |  | CN(Cc1cc2c(=O)c(C(=O)NCc3ccc(Cl)cc3)cn(C)c2s1)C[C@@H](O)c1ccc(O)cc1 [Example 1, N-(4-Chlorobenzyl)-2-((((2S)-2-hydroxy-2-(4-hydroxyphenyl)ethyl)(methyl)-amino)methyl)-7-methyl-4-oxo-4,7-dihydrothieno[2,3-b]pyridine-5-carboxamide] |  |
| 1770 |  |  |  | CN(Cc1cc2c(=O)c(C(=O)NCc3ccc(Cl)cc3)cn(CC(O)CO)c2s1)C[C@@H](O)c1ccccc1 (stereo partly drawn) [Example 3, N-(4-Chlorobenzyl)-7-(2,3-dihydroxypropyl)-2-((((2S)-2-hydroxy-2-phenylethyl)-(methyl)amino)methyl)-4-oxo-4,7-dihydrothieno[2,3-b]pyridine-5-carboxamide] |  |
| 620 |  |  | 45 to 48 | CCCn1cc(C(=O)NCc2ccc(Cl)cc2)c(=O)c2cc(CN(C)C[C@@H](O)c3ccccc3)sc21 [Example 8, N-(4-Chlorobenzyl)-2-((((2S)-2-hydroxy-2-phenylethyl)(methyl)amino)methyl)-4-oxo-7-propyl-4,7-dihydrothieno[2,3-b]pyridine-5-carboxamide] |  |
| 320 |  |  | 105 to 106 | COCCn1cc(C(=O)NCc2ccc(Cl)cc2)c(=O)c2cc(CN(C)C[C@@H](O)c3ccccc3)sc21 [Example 9, N-(4-Chlorobenzyl)-2-((((2S)-2-hydroxy-2-phenylethyl)(methyl)amino)methyl)-7-(2-methoxyethyl)-4-oxo-4,7-dihydrothieno[2,3-b]pyridine-5-carboxamide] |  |

Second part, the compound before the results:

| SMILES | IC50 ([1]; read-out: Polymerase IC50 HCMV) [nM] | IC50 [2] [nM] | IC50 [3] [nM] | melting point [°C] | IC50 [1] [nM] |
| --- | --- | --- | --- | --- | --- |
| COc1cccc([C@H](O)CN(C)Cc2cc3c(=O)c(C(=O)NCc4ccc(Cl)cc4)cn(C)c3s2)c1 (single isomer, unassigned) [Example 6] | 60 | 160 | 90 |  |  |
| CN(Cc1cc2c(=O)c(C(=O)NCc3ccc(Cl)cc3)cn(C)c2s1)C[C@@H](O)c1ccc(C#N)cc1 (single isomer, unassigned) [Example 10] | 340 |  |  |  |  |
| CN(Cc1cc2c(=O)c(C(=O)NCc3ccc(Cl)cc3)cn(C)c2s1)C[C@@H](O)c1cccc(C#N)c1 (single isomer, unassigned) [Example 11] | 100 | 210 | 110 |  |  |
| CN(Cc1cc2c(=O)c(C(=O)NCc3ccc(Cl)cc3)cn(C)c2s1)C[C@@H](O)c1ccc(N(C)C)cc1 (single isomer, unassigned) [Example 12] | 210 | 620 | 230 |  |  |
| CN(Cc1cc2c(=O)c(C(=O)NCc3ccc(Cl)cc3)cn(C)c2s1)C[C@@H](O)c1ccccc1 [Example 2, N-(4-Chlorobenzyl)-2-((((2S)-2-hydroxy-2-phenylethyl)(methyl)amino)methyl)-7-methyl-4-oxo-4,7-dihydrothieno[2,3-b]pyridine-5-carboxamide] |  | 400 | 200 | 162 to 164 | […] |
| CN(Cc1cc2c(=O)c(C(=O)NCc3ccc(Cl)cc3)cn(CCCO)c2s1)C[C@@H](O)c1ccccc1 [Example 4, N-(4-chlorobenzyl)-2-((((2S)-2-hydroxy-2-phenylethyl)(methyl)amino)methyl)-7-(3-hydroxypropyl)-4-oxo-4,7-dihydrothieno[2,3-b]pyridine-5-carboxamide] |  |  |  |  | 1400 |
| CN(Cc1cc2c(=O)c(C(=O)NCc3ccc(Cl)cc3)cn(CCO)c2s1)C[C@@H](O)c1ccccc1 [Example 5, N-(4-Chlorobenzyl)-7-(2-hydroxyethyl)-2-((((2S)-2-hydroxy-2-phenylethyl)-(methyl)amino)methyl)-4-oxo-4,7-dihydrothieno[2,3-b]pyridine-5-carboxamide] | 2020 |  |  |  |  |
| CCn1cc(C(=O)NCc2ccc(Cl)cc2)c(=O)c2cc(CN(C)C[C@@H](O)c3ccccc3)sc21 [Example 7, N-(4-Chlorobenzyl)-7-ethyl-2-((((2S)-2-hydroxy-2-phenylethyl)(methyl)amino)methyl)-4-oxo-4,7-dihydrothieno[2,3-b]pyridine-5-carboxamide] | 470 |  |  | 100 to 102 |  |
